For one series, the system named is melanoma cell lines. The note with it: Miele 2006; cited from earlier work.
Another series deals with melanoma xenografts. The note with it: Miele 2006; cited from earlier work.
The subject of series [1] is ALL-SIL cells. As to the kind of experiment: Proliferation, viability and cell cycle of T-ALL cell line (viable cell count, FACS). It is filed as cell-based, human. The note with it: for proliferation: proliferation period of 3 days. On the procedure:
(§1) DND-41, HSB-2, RPMI-8402, ALL-SIL, MOLT-4, LOUCY, P12-ICHIKAWA, CCRF-CEM (DSMZ, Braunschweig, Germany) were cultured in RPMI-1640 supplemented with 20% fetal calf serum. The number or percentage of viable cells was counted with a Vi-cell XR cell viability analyzer (Beckman Coulter, Fullerton, Calif.). For differentiation experiments, cells were cultured during a period of 6 days and electroporated on the first day and again on the 4th day with 50 nM siRNA. MYB stealth select siRNAs were purchased from Invitrogen (Carlsbad, Calif.). […] Electroporation with a stealth siRNA directed against ERBB4 (Invitrogen, Carlsbad, Calif.), a gene not expressed in these cell lines, served as a control. […] For inhibition of NOTCH1, we treated the cell ines with 1 μM of Compound E (gamma-secretase inhibitor XXI, Calbiochem, San Diego, Calif.) or DMSO (control). The percentage proliferation was calculated by comparing the increase of the number of viable cells from treated cells to the increase of the number of viable cells treated with DMSO and electroporated with a control siRNA, and this for a proliferation period of 3 days.
(§2) Analysis of CD1a, CD3, CD4 and CD8 expression and cell cycle analysis was performed on 0.3-1×10^6 cells 6 days after the first electroporation with siRNA. We used the PE/CD1a, and the TriTEST CD4 FITC/CD8 PE/CD3 PerCP Reagent kit (Becton Dickinson, San Jose, Calif.) and the CycleTEST™ PLUS DNA Reagent Kit (Becton Dickinson). After staining, the cells were detected on a FACSCanto Flow Cytometer (Becton Dickinson) and the data were analyzed with the BD FACSDiva software (Becton Dickinson). Unstained cells and cells treated with ERBB4 siRNA were used as controls. Cell sorting was performed after staining of the cells with the TriTEST CD4/CD8/CD3 kit. Cells were separated into two fractions (differentiated and undifferentiated) using the FACSVantage SE system (Becton Dickinson).
(§3) Cell lines were electroporated every four days with 50-250 nM siRNA. MYB stealth select siRNAs (MYB-HSS106819) were purchased from Invitrogen (Carlsbad, Calif.).

In series [2] the test system is RPMI-8402 cells. Described as above. Format: cell-based, human. The note with it: for proliferation: proliferation period of 3 days. On the procedure: as §1, §2, §3
The test system of a further series is MOLT-4. The note with it: reference 4; cited from earlier work.
The subject of the next series is ALL-SIL. The note with it: reference 4; cited from earlier work.
For the next series, the system named is RPMI-8402. The note with it: reference 4; cited from earlier work.
A further series relates to T-ALL cells. The note with it: Miele 2006; cited from earlier work.
In a further series the test system is MYB. As to the kind of experiment: Knockdown of MYB expression by siRNA electroporation, protein blot analysis. Format: cell-based, human. The following applies: among MYB stealth select siRNAs. On the procedure:
FIG. 1: Effect of knockdown of MYB expression on T-ALL cell lines. (a) Protein blot analysis showing that electroporation of three different MYB siRNAs in RPMI-8402 cells causes a decrease of MYB expression, compared with electroporation with no siRNA or control siRNA (ERBB4). […] Control cells were treated with dimethylsulfoxide or a control siRNA. Error bars indicate s.e.m.
DND-41, HSB-2, RPMI-8402, ALL-SIL, MOLT-4, LOUCY, P12-ICHIKAWA, CCRF-CEM (DSMZ, Braunschweig, Germany) were cultured in RPMI-1640 supplemented with 20% fetal calf serum. The number or percentage of viable cells was counted with a Vi-cell XR cell viability analyzer (Beckman Coulter, Fullerton, Calif.). For differentiation experiments, cells were cultured during a period of 6 days and electroporated on the first day and again on the 4th day with 50 nM siRNA. MYB stealth select siRNAs were purchased from Invitrogen (Carlsbad, Calif.). […] Electroporation with a stealth siRNA directed against ERBB4 (Invitrogen, Carlsbad, Calif.), a gene not expressed in these cell lines, served as a control. […] The percentage proliferation was calculated by comparing the increase of the number of viable cells from treated cells to the increase of the number of viable cells treated with DMSO and electroporated with a control siRNA, and this for a proliferation period of 3 days. […]

Series [3] concerns ALL-SIL cells. As to the kind of experiment: Differentiation of T-ALL cell line after MYB knockdown (FACS of CD1a, CD3, CD4, CD8). Format: cell-based, human. On the procedure: as §1, §2
A further series concerns MOLT-4 cells. The description is as above. Format: cell-based, human. On the procedure: as §1, §2
Series [4] concerns RPMI-8402 cells. Described as above. It is filed as cell-based, human. On the procedure:
as §1, §2

Series [5] deals with Ras-transformed fibroblasts. The note with it: Miele 2006; cited from earlier work.
Setting [6] is: siRNA electroporation and/or 1 μM Compound E, vs DMSO and control siRNA.
The mark [7] stands for this setting: 50 nM siRNA electroporated day 1 and day 4, 6 days.
Where [8] appears, read: flow-sorted cells analysed 10 d later.

Non-standard residues stand in square brackets, D forms with d. Residues, ends and D or L forms follow the SMILES beside them. *: point of attachment. Nle = CCCC[C@H](N)C(=O)O; Cbz = O=C(OCc1ccccc1)*

In the case of `CCCC[C@@H](C=O)NC(=O)[C@H](CC(C)C)NC(=O)[C@H](CC(C)C)NC(=O)OCc1ccccc1` [z-Leu-leu-Nle-CHO] (Cbz-Leu-Leu-[Nle]-aldehyde), the apoptosis entry in the series on melanoma cell lines and in the series on melanoma xenografts was “induces apoptosis” in each case.
In the case of `C[C@H](NC(=O)Cc1cc(F)cc(F)c1)C(=O)N[C@H]1N=C(c2ccccc2)c2ccccc2N(C)C1=O` [Compound E, (S, S)-2-[2-(3,5-Difluorophenyl)-acetylamino]-N-(1-methyl-2-oxo-5-phenyl-2,3-dihydro-1H-benzo[e][1,4]diazepin-3-yl)-propionamide], the proliferation entry is listed as “inhibition of the proliferation” in the series on ALL-SIL cells [1] (setting [6]), “inhibition of the proliferation” in the series on RPMI-8402 cells [2] (setting [6]), “inhibit the proliferation” in the series on ALL-SIL and “inhibit the proliferation” with RPMI-8402. In the series with MOLT-4, the “sensitivity to GSI treatment” value is given as “not sensitive”. The growth entry in the series with T-ALL cells is “causes growth arrest”.
Regarding “MYB siRNA 1: MYB stealth select siRNA (Invitrogen), sequence 5′UAUAGUGUCUCUGAAUGGCUGCGGC (SEQ ID NO:1) with complementary strand SEQ ID NO:2 (chain 2 GCCGCAGCCAUUCAGAGACACUAUA; Invitrogen Stealth Select siRNA, chemistry not given here)”, the “efficiency of siRNA” value in the series on MYB is given as “most efficient”. The “differentiation (changes in expression of CD1a, CD3, CD4 or CD8 cell surface markers)” value in the series with ALL-SIL cells [3] (setting [7]), with MOLT-4 cells (setting [7]) and in the series with RPMI-8402 cells [4] (setting [7]) was “results in the differentiation” throughout. For the same compound, the reversibility of differentiation result in the series on ALL-SIL cells [3] (setting [8]), with MOLT-4 cells (setting [8]) and with RPMI-8402 cells [4] (setting [8]) was “irreversible” throughout. The cell cycle entry in the series on ALL-SIL cells [1] (siRNA electroporation) and with RPMI-8402 cells [2] (siRNA electroporation) was “only a limited effect” each time. Besides, the proliferation result in the series with ALL-SIL cells [1] (setting [6]) and with RPMI-8402 cells [2] (setting [6]) was “only a limited effect” throughout. In addition, the “viability / cell survival” value in the series on ALL-SIL cells [1] (setting [6]) and in the series with RPMI-8402 cells [2] (setting [6]) was “only a limited effect” in each case.
Take `CCC(C)C(NC(=O)OCc1ccccc1)C(=O)NC(C=O)CC(C)C` (stereo not drawn) [cbz-IL-CHO] (Cbz-Ile-Leu-aldehyde; configuration not given here): the antineoplastic activity entry in series [5] is on record as “Notch-1—dependent antineoplastic activity”.

These data come from patent US8173423B2, “Diagnosis and treatment of T-cell acute lymphoblastic leukemia” (VIB VZW, priority 2006, dated 2012).
